According to ChEMBL document CHEMBL1201862, “PubChem BioAssay data set” (2004):
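1) Cells in 96-well plates. 2) Compound, 48 h, 5 concentrations. 3) Linear interpolation between surrounding doses. 4) Unreached endpoint = highest concentration. The concentration for 50% growth inhibition is given as GI50.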 Calls of active or inactive are those of the source. Rule as the data show it: active = GI50 up to about 1.1 µM and inactive = higher.

Assays:
Experiment in all cases: NCI tumour cell line growth inhibition, 48 h
OVCAR-4 = tested on: OVCAR-4
MDA-N = tested on: MDA-N
SNB-75 = tested on: SNB-75
SF-268 = tested on: SF-268
EKVX = tested on: EKVX
SW-620 = tested on: SW-620
A549 = tested on: A549
PC-3 = tested on: PC-3
COLO 205 = tested on: COLO 205
BT-549 = tested on: BT-549
SK-MEL-5 = tested on: SK-MEL-5
CAKI-1 = tested on: CAKI-1
NCI/ADR-RES = tested on: NCI/ADR-RES
A498 = tested on: A498
SF-295 = tested on: SF-295
OVCAR-3 = tested on: OVCAR-3
T47D = tested on: T47D
LOX IMVI = tested on: LOX IMVI
SNB-19 = tested on: SNB-19
786-0 = tested on: 786-0

| SMILES | GI50 (OVCAR-4) | GI50 (MDA-N) | GI50 (SNB-75) | GI50 (SF-268) | GI50 (EKVX) | GI50 (SW-620) | GI50 (A549) | GI50 (PC-3) | GI50 (COLO 205) | GI50 (BT-549) | GI50 (SK-MEL-5) | GI50 (CAKI-1) | GI50 (NCI/ADR-RES) | GI50 (A498) | GI50 (SF-295) | GI50 (OVCAR-3) | GI50 (T47D) | GI50 (LOX IMVI) | GI50 (SNB-19) | GI50 (786-0) |
| --- | --- | --- | --- | --- | --- | --- | --- | --- | --- | --- | --- | --- | --- | --- | --- | --- | --- | --- | --- | --- |
| COc1cccc(C2ON=C(c3ccccc3)N2C23CC4CC(CC(C4)C2)C3)c1 (stereo not given) | 5.46 µM (inactive) | > 10 µM (inactive) | 8.91 µM (inactive) | > 10 µM (inactive) | > 10 µM (inactive) | > 10 µM (inactive) | > 10 µM (inactive) | 9.35 µM (inactive) | > 10 µM (inactive) | > 10 µM (inactive) | > 10 µM (inactive) | > 10 µM (inactive) | > 10 µM (inactive) | > 10 µM (inactive) | > 10 µM (inactive) | 9.04 µM (inactive) | > 10 µM (inactive) | > 10 µM (inactive) | > 10 µM (inactive) | > 10 µM (inactive) |
| C[C@@]12C(=O)OC(=O)[C@]1(C)[C@H]1CC[C@@H]2O1 [CANTHARIDIN] | 2.58 µM (inactive) | 2.91 µM (inactive) | 0.472 µM (active) | 1.77 µM (inactive) | 0.45 µM (active) | 3.84 µM (inactive) | 0.918 µM (active) | 0.279 µM (active) | 0.427 µM (active) | 1.7 µM (inactive) | 0.973 µM (active) | 0.791 µM (active) | 6.5 µM (inactive) | 1.12 µM (inactive) | 1.37 µM (inactive) | 0.759 µM (active) | 1.68 µM (inactive) | 2.23 µM (inactive) | 1.1 µM (active) | 1.74 µM (inactive) |
| COC(=O)/C=C\C(C#N)(C#N)/N=C/c1cc(Br)cs1 | 7.91 µM (inactive) | 2.67 µM (inactive) | 16.2 µM (inactive) | 6.1 µM (inactive) | 7.45 µM (inactive) | 1.15 µM (inactive) | 18 µM (inactive) | 5.09 µM (inactive) | 1.98 µM (inactive) | 7.08 µM (inactive) | 6.3 µM (inactive) | 2.96 µM (inactive) | 15.7 µM (inactive) | 18.5 µM (inactive) | 17.9 µM (inactive) | 7 µM (inactive) | 2.12 µM (inactive) | 2.06 µM (inactive) | 18.5 µM (inactive) | 1.94 µM (inactive) |
| COC1CC(O[C@H]2CC[C@@]3(C)[C@@H](CC[C@]4(O)[C@@H]3CC[C@]3(C)[C@@H](C(C)=O)[C@H](OC(=O)CC(C)C)[C@@H](OC(=O)c5ccccc5)[C@@]34O)C2)OC(C)C1OC1CC(OC)C(OC2OC(C)C(O)C(OC)C2O)C(C)O1 (stereo not given in full) | 19.1 µM (inactive) | > 25 µM (inactive) | 11.9 µM (inactive) | > 25 µM (inactive) | 9.68 µM (inactive) | > 25 µM (inactive) | 7.89 µM (inactive) | 11.7 µM (inactive) | 5.13 µM (inactive) | > 25 µM (inactive) | 17.8 µM (inactive) | 17.7 µM (inactive) | 19.9 µM (inactive) | > 25 µM (inactive) | 16.9 µM (inactive) | 11.8 µM (inactive) | 8 µM (inactive) | 15.9 µM (inactive) | > 25 µM (inactive) | > 25 µM (inactive) |
| CCOC1Oc2ccccc2-c2nc(SC)ncc21 (stereo not given) | > 100 µM (inactive) | 64.1 µM (inactive) | > 100 µM (inactive) | > 100 µM (inactive) | 36 µM (inactive) | > 100 µM (inactive) | > 100 µM (inactive) | > 100 µM (inactive) | > 100 µM (inactive) | 78 µM (inactive) | 52.5 µM (inactive) | > 100 µM (inactive) | 82.8 µM (inactive) | 28.9 µM (inactive) | > 100 µM (inactive) | > 100 µM (inactive) | 27.4 µM (inactive) | 80.7 µM (inactive) | > 100 µM (inactive) | > 100 µM (inactive) |
| O=C1c2c(Br)sc(Br)c2[C@H]2NC(=S)O[C@@H]12 | 17.1 µM (inactive) | 16 µM (inactive) | 19.1 µM (inactive) | 15 µM (inactive) | 20.4 µM (inactive) | 3.18 µM (inactive) | 20.8 µM (inactive) | 14.5 µM (inactive) | 13.4 µM (inactive) | 16.5 µM (inactive) | 15.8 µM (inactive) | 11.8 µM (inactive) | 21.4 µM (inactive) | 23.5 µM (inactive) | 20.6 µM (inactive) | 7.94 µM (inactive) | 21.8 µM (inactive) | 13.9 µM (inactive) | 21.7 µM (inactive) | 14.2 µM (inactive) |
| COC(=O)C1OC(SCCN)C(O)C(O)C1O (stereo not given) | > 100 µM (inactive) | > 100 µM (inactive) | > 100 µM (inactive) | > 100 µM (inactive) | > 100 µM (inactive) | > 100 µM (inactive) | > 100 µM (inactive) | > 100 µM (inactive) | > 100 µM (inactive) | > 100 µM (inactive) | > 100 µM (inactive) | > 100 µM (inactive) | > 100 µM (inactive) | > 100 µM (inactive) | > 100 µM (inactive) | > 100 µM (inactive) | > 100 µM (inactive) | > 100 µM (inactive) | > 100 µM (inactive) | > 100 µM (inactive) |
| COc1ccc(C(Nc2ncccn2)c2cc3c(cc2O)OCO3)cc1 (stereo not given) | 42.8 µM (inactive) | 18.3 µM (inactive) | 10.2 µM (inactive) | 17.3 µM (inactive) | 22.9 µM (inactive) | 9.42 µM (inactive) | 32.2 µM (inactive) | 19.5 µM (inactive) | 26.6 µM (inactive) | 23 µM (inactive) | 20.4 µM (inactive) | 20.3 µM (inactive) | 30.8 µM (inactive) | 46.5 µM (inactive) | 65.8 µM (inactive) | 17.3 µM (inactive) | 13.3 µM (inactive) | 16.9 µM (inactive) | 17.3 µM (inactive) | 18 µM (inactive) |
| NC(Cc1c[nH]c(I)n1)C(=O)O (stereo not given) | 49.9 µM (inactive) | > 100 µM (inactive) | 25.6 µM (inactive) | 84.9 µM (inactive) | 42.7 µM (inactive) | 30 µM (inactive) | > 100 µM (inactive) | > 100 µM (inactive) | > 100 µM (inactive) | 43.4 µM (inactive) | 82.2 µM (inactive) | 29.3 µM (inactive) | 37.1 µM (inactive) | > 100 µM (inactive) | > 100 µM (inactive) | 32.4 µM (inactive) | 90.6 µM (inactive) | > 100 µM (inactive) | > 100 µM (inactive) | > 100 µM (inactive) |
| CC1OC(O[C@H]2C3C=CO[C@@H](OC4OC(CO)C(O)C(O)C4O)C3[C@@]3(COC(=O)/C=C/c4ccc(O)cc4)O[C@@H]23)C(O)C(O)C1O (stereo not given in full) | > 100 µM (inactive) | > 100 µM (inactive) | > 100 µM (inactive) | > 100 µM (inactive) | > 100 µM (inactive) | > 100 µM (inactive) | > 100 µM (inactive) | > 100 µM (inactive) | > 100 µM (inactive) | > 100 µM (inactive) | > 100 µM (inactive) | > 100 µM (inactive) | > 100 µM (inactive) | > 100 µM (inactive) | > 100 µM (inactive) | > 100 µM (inactive) | > 100 µM (inactive) | > 100 µM (inactive) | > 100 µM (inactive) | > 100 µM (inactive) |
| CC1=C(C(=O)N[C@@H](CC(C)C)C(=O)O)N2C(=O)[C@@H](NC(=O)[C@@H](N)Cc3ccccc3)[C@H]2SC1 | > 100 µM (inactive) | > 100 µM (inactive) | > 100 µM (inactive) | > 100 µM (inactive) | > 100 µM (inactive) | > 100 µM (inactive) | > 100 µM (inactive) | > 100 µM (inactive) | > 100 µM (inactive) | > 100 µM (inactive) | > 100 µM (inactive) | > 100 µM (inactive) | > 100 µM (inactive) | > 100 µM (inactive) | > 100 µM (inactive) | > 100 µM (inactive) | > 100 µM (inactive) | > 100 µM (inactive) | > 100 µM (inactive) | > 100 µM (inactive) |
| CC(=O)/C(=C/c1ccccc1F)C(=O)c1ccccc1 | 67.8 µM (inactive) | 37.9 µM (inactive) | 38.9 µM (inactive) | 33.2 µM (inactive) | 67.1 µM (inactive) | 20.7 µM (inactive) | 57 µM (inactive) | 27.7 µM (inactive) | 60.5 µM (inactive) | 48.2 µM (inactive) | 42.9 µM (inactive) | > 100 µM (inactive) | 29.1 µM (inactive) | > 100 µM (inactive) | 43.8 µM (inactive) | 18.6 µM (inactive) | 24.9 µM (inactive) | 17.8 µM (inactive) | 60.7 µM (inactive) | 31.7 µM (inactive) |
| COc1ccc2c(c1)C(=O)C(=O)c1cc(O)c(OC)c(OC)c1-2 | 0.719 µM (active) | 0.697 µM (active) | 1.18 µM (inactive) | 1 µM (active) | 0.979 µM (active) | 1.2 µM (inactive) | 2.73 µM (inactive) | 1.07 µM (active) | 1.31 µM (inactive) | 0.718 µM (active) | 0.826 µM (active) | 0.918 µM (active) | 1.03 µM (active) | 4.48 µM (inactive) | 0.805 µM (active) | 0.946 µM (active) | 1.13 µM (inactive) | 0.883 µM (active) | 1.01 µM (active) | 0.836 µM (active) |
| CC1(C)SC2C(NC(=O)Cc3ccccc3)C(=O)N2C1C(=O)O (stereo not given) | > 100 µM (inactive) | > 100 µM (inactive) | > 100 µM (inactive) | > 100 µM (inactive) | > 100 µM (inactive) | > 100 µM (inactive) | > 100 µM (inactive) | > 100 µM (inactive) | 65.6 µM (inactive) | > 100 µM (inactive) | > 100 µM (inactive) | > 100 µM (inactive) | > 100 µM (inactive) | > 100 µM (inactive) | > 100 µM (inactive) | > 100 µM (inactive) | > 100 µM (inactive) | > 100 µM (inactive) | > 100 µM (inactive) | > 100 µM (inactive) |
